Several values for one entry are separate records, joined by “and”; a condition that tells them apart may be missing. Equal values may be shown once.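 The compound was tested at five concentrations on cells cultured in 96-well plates, with a 48-hour exposure period. GI50 is the concentration that inhibits growth by half. Definition used: TGI = concentration required for complete inhibition of growth.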

The results in this text go back to PubChem BioAssay (NCI).

The subject of the assay is MDA-MB-468 breast. The assay is described as follows: NCI-60 cell line screen, 48 h.

`CS(=O)c1nccc(-c2c(-c3ccc(F)c(OCc4ccc(F)cc4)c3)nc3sccn23)n1` (configuration not stated): the GI50 is 1950 nM and the TGI was found to be 4330 nM.
Consider `CCn1c(-c2nonc2N)nc2c(C#CC(C)(C)O)nc(OC[C@H](N)c3ccccc3)cc21`, for which the GI50 is 2950 nM and the TGI worked out at 6730 nM.
As to `O=C(CNc1ccc(Cl)cc1)Nc1ccc(-c2nc3ccccc3s2)cc1`, the GI50 was 37.5 nM and the TGI came out at 386 nM.
In the same order, the values of `COc1ccc(/C=C(/C(=O)N2CCN(c3ccccc3)CC2)c2cc(OC)c(OC)c(OC)c2)cc1O` are 575 nM and more than 100000 nM.
For the molecule `N#Cc1c(NN)n(C2OC(CO)C(O)C2O)c2ncnc(N)c12` (configuration not stated), the GI50 is 10.5 nM and the TGI amounted to 59.4 nM.
For the molecule `O=C(Nc1ccc(Cl)cc1F)c1ccccc1O`, the GI50 is 2310 nM and the TGI is 6420 nM.
Consider `[Cl][Hg][c]1cc(Br)cc(Br)c1`, for which the GI50 was 1370 nM and the TGI stood at 3020 nM.
For the molecule `N#CC(=C1C=CC(=NO)C=C1)c1ccccc1`, the GI50 is 289 nM and the TGI was 2860 nM.
In the same order, the values of `C=COCCCOc1ccccc1` are more than 100000 nM and more than 100000 nM.
Take `O=C1/C(=C/c2ccc(Br)cc2)COc2ccc(O)c(O)c21`: the GI50 is 1370 nM and the TGI was found to be 3200 nM.
For `CCN(CC)CCOc1ccc(-c2nc3cc(Cl)ccc3s2)cc1` the same measures were 1160 nM and 2460 nM.
In the case of `O=C(Nc1nc2ccc(C(F)(F)F)cc2s1)c1cc(Cl)ccc1O`, the GI50 is 1400 nM and the TGI was determined as 13700 nM.
As for `Cn1c2ccccc2c2c3c(c4c5cc(Br)ccc5n(C)c4c21)C(=O)N(O)C3=O`, the GI50 was 213 nM and the TGI amounted to 510 nM.
As for `O=C1NC(=O)C(c2cnc3ccccn23)=C1c1cn2c3c(cc(F)cc13)CN(C(=O)N1CCCCC1)CC2`, the GI50 is 4470 nM and the TGI was determined as 29900 nM.
For `Cc1ccc(C)c(C2=C(c3cn(C)c4ccccc34)C(=O)NC2=O)c1` the same measures were 24300 nM and more than 25000 nM.
With `CCCCCCCCCCCCCC1=NC(C)(C)CN1C(C)C`, the GI50 is 1520 nM and the TGI was found to be 2940 nM.
With `NC(=O)c1c(NC(=O)c2ccc(C3CCCCC3)cc2)sc2c1CCC(=O)C2`, the GI50 was 297 nM and the TGI was determined as 1430 nM.
Consider `Clc1nc2ccccc2nc1CI`, for which the GI50 was 2990 nM and the TGI was 8670 nM.
With `COc1cc(C2CC(c3cccc(Br)c3)=NN2C(C)=O)cc(OC)c1OC` (configuration not stated), the GI50 was 215 nM and the TGI is more than 100000 nM.
For the molecule `CCC(C)n1ncn(-c2ccc(N3CCN(c4ccc(OCC5COC(Cn6cncn6)(c6ccc(Cl)cc6Cl)O5)cc4)CC3)cc2)c1=O` (configuration not stated), the GI50 was 7070 nM and the TGI is more than 100000 nM.
Take `Cc1nc2c(-c3cnc(N)nc3)nc(N3CCOCC3)nc2n1C(C)C`: the GI50 was 105 nM and 73.4 nM; the TGI was 647 nM and 398 nM.
As for `CN1CCN(CCOc2ccc(-c3cnc4c(-c5ccccc5F)cnn4c3)cc2)CC1`, the GI50 was 1650 nM and the TGI came to 3360 nM.
In the same order, the values of `CC(C)=CCNc1ncnc2c1ncn2C1OC(CO)C(O)C1O` (configuration not stated) are 370 nM and 1780 nM.
For `COc1ccc(CN2C(=O)/C(=C\C(=O)c3ccc(OCCN4CCCCC4)cc3)c3ccccc32)cc1` the same measures were 1700 nM and 3680 nM.
In the case of `CCN(CC)CCC(CNc1ccnc2cc(Cl)ccc12)c1ccc(OC)cc1` (configuration not stated), the GI50 was 1990 nM; the TGI is 4770 nM and 5300 nM.
As for `CCN(CC)CCCC(CNc1ccnc2cc(Cl)ccc12)c1ccc(Cl)cc1` (configuration not stated), the GI50 is 992 nM and 419 nM; the TGI was 2550 nM and 1490 nM.
On to `CC(C)CCN1c2nc(Nc3cc(F)c(O)c(F)c3)ncc2N(C)C(=O)C1C` (configuration not stated), for which the GI50 was 5020 nM and the TGI was determined as 23900 nM.
Turning to `CCN(CC)c1ccc2c(c1)OC(N)=C(C#N)C2c1cc(OC)c2c(c1)OCO2` (configuration not stated), the GI50 is 32.8 nM and the TGI came to 2970 nM.
Turning to `Cn1nc(N)c2cc([C@@H]3Nc4ccc5[nH]ncc5c4[C@H]4C5CCC(C5)[C@@H]34)ccc21` (some centres not stated), the GI50 was 235 nM and the TGI was determined as 3340 nM.
As to `CCCCCCNC(=O)c1cc(NCc2cc(O)ccc2O)ccc1O`, the GI50 is 6530 nM and the TGI came to 28900 nM.
In the same order, the values of `CCN1CCN(C(c2ccc(C(F)(F)F)cc2)c2ccc3cccnc3c2O)CC1` (configuration not stated) are 2480 nM and 6480 nM.
For `C=C1CC[C@@H]2[C@](C)(COC(C)=O)[C@H](OC(C)=O)CC[C@@]2(C)[C@@H]1CC(Sc1ccccc1)C1=CCOC1=O` (some centres not stated), the GI50 was 1410 nM and the TGI amounted to 3260 nM.
Regarding `COc1ccc(CCOc2cc3c(cc2OC)CCN(C(=O)NCc2cocn2)C3c2ccc(C)cc2C)cc1` (configuration not stated), the GI50 is 289 nM and the TGI worked out at 1300 nM.
For `CC(C)=CC/C=C(/C)[C@H]1CC[C@]2(C)[C@@H]1CC[C@@H]1[C@@]3(C)CCCNC(C)(C)[C@@H]3CC[C@]12C` the same measures were 1710 nM and 3250 nM.
Turning to `O=C(Cc1ccc(/C=C/C(=O)c2ncc[nH]2)cc1)Nc1cc(F)c(F)c(F)c1`, the GI50 was 1110 nM and the TGI worked out at 4530 nM.
Regarding `COc1ccc(C(C)=O)cc1N1C(=O)C2C(C1=O)C1(c3ccccc3)C(=O)C2(c2ccccc2)C(c2ccc(C)cc2)=C1c1ccc(C)cc1` (configuration not stated), the GI50 was more than 100000 nM and the TGI is more than 100000 nM.
